Patent US5010174A, “Novel calcitonin derivative and salt thereof” (Mitsubishi Petrochemical Co., Ltd., priority 1987, dated 1991)

Key:
[1] = Biological activity (calcitonin activity, MRC U/mg), assayed by the method of Japanese Provisional Patent Publication No. 123500/1985; type: in vivo; conditions: for biological activity: method of Japanese Provisional Patent Publication No. 123500/1985; for biological activity, in words, compared with Example 1: measured as in Example 1
Procedure: The crude (Oct^1, Cys(CA)^7)-CCT obtained was dissolved in a 1 M acetic acid (5 mg/ml) and purified by the reverse phase high performance liquid chromatography. Chemcopack ODS-H (trade name, .phi.: 10 mm×250 mm) column produced by Chemco Co. was used, with the eluents employed being water (100) - 10% TFA (1) for the eluent A and water (40)-acetonitrile (60) - 10% TFA (1) for the eluent B, and the elution was effected under the linear concentration gradient from the eluent A to the eluent B. Here, the numerals within bracckets represent volume ratios. The fraction corresponding to (Oct^1, Cys(CA)^7)-CCT was collected and lyophilized to obtain 2.8 mg of white powder. The biological activity of the white powder obtained was assayed according to the method as described in Japanese Provisional Patent Publication No. 123500/1985.

[2] = Stability test: heating in sodium citrate buffer, remaining peptide by reverse phase HPLC; conditions: for Stability (ratio of eluted peak area A after heating to area B without heat treatment): 0.1 M sodium citrate buffer pH 6.0, 10 μg/ml, sealed tube, 80° C., 24 hours, reverse phase HPLC
Procedure: The (Oct^1, Cys(CA)^7)-CCT was dissolved in 0.1 M sodium citrate buffer (pH 6.0) to a concentration of 10 μg/ml. One ml of this solution was left to stand in a sealed tube at 80° C. for 24 hours. By analysis according to the reverse phase HPLC by use of the measurement conditions (1), the eluted peak area A of the remaining (Oct^1, Cys(CA)^7)-CCT was determined. Similarly, the eluted peak area B of the (Oct^1, Cys(CA)^7)-CCT in the sample solution not subjected to the heat treatment was determined, and the ratio of A to B (%) was defined as the index.

Row | Substance | Stability (ratio of eluted peak area A after heating to area B without heat treatment) [2] [%] | biological activity [1] [MRC U/mg] | biological activity, in words, compared with Example 1 [1] | stability, in words, compared with Example 1 ([2]; measured as in Example 1)
1 | (Oct^1, Ala^3, Cys(CA)^7)-CCT | 90 | 6100 |  | 
2 | (Oct^1, Cys(Acm)^7)-CCT |  | 5500 |  | 
3 | (Oct^1, Cys(Acm)^7)-ECT |  | 5400 |  | 
4 | (Oct^1, Cys^7)-CCT |  |  | substantially equal to those of (Oct^1, Cys(CA)^7)-CCT of Example 1 | substantially equal to those of (Oct^1, Cys(CA)^7)-CCT of Example 1

Further lines, with some results ahead:

Row | Stability (ratio of eluted peak area A after heating to area B without heat treatment) [2] [%] | Substance | biological activity [1] [MRC U/mg] | biological activity, in words, compared with Example 1 [1] | stability, in words, compared with Example 1 ([2]; measured as in Example 1)
5 | 95 | (Oct^1, Cys(CA)^7)-CCT | 5400 | equal to that obtained in Example 1 | 
6 | 82 | (Oct^1, Thr^3, Cys(Acm)^7)-CCT | 7800 |  | 
7 | 95 | (Oct^1, Thr^3, Cys(CA)^7)-CCT | 7800 |  | 
